Experimental data published in patent US20050124606A1, “Novel benzothiazine and benzothiadiazine derivatives method for preparing same and pharmaceutical compositions containing same” (priority 2001, published 2005).

System: not given
Assay: not given
Conditions: not given

Compound | melting point [°C]
CCN1CNS(=O)(=O)c2cc(Oc3ccccc3)ccc21 [Example 29, 4-Ethyl-7-phenoxy-3,4-dihydro-2H-1,2,4-benzothiadiazine 1,1-dioxide] | 179 to 181
CCOc1cccc(Oc2ccc3c(c2)S(=O)(=O)NC2CCCN32)c1 (centres unmarked) [Example 18, 7-(3-Ethoxyphenoxy)-2,3,3a,4-tetrahydro-1H-pyrrolo[2,1-c][1,2,4]-benzothiadiazine 5,5-dioxide] | 150
CSc1cccc(Oc2ccc3c(c2)S(=O)(=O)NC2CCCN32)c1 (centres unmarked) [Example 34, 7-(3-Methylsulphanylphenoxy)-2,3,3a,4-tetrahydro-1H-pyrrolo-[2,1-c][1,2,4]benzothiadiazine 5,5-dioxide] | 160
Cc1ccc(Oc2ccc3c(c2)S(=O)(=O)NC2CCCN32)cc1 (centres unmarked) [Example 7, 7-(4-Methylphenoxy)-2,3,3a,4-tetrahydro-1H-pyrrolo[2,1-c][1,2,4]-benzothiadiazine 5,5-dioxide] | 222 to 226
O=[N+]([O-])c1cccc(Oc2ccc3c(c2)S(=O)(=O)NC2CCCN32)c1 (centres unmarked) [Example 15, 7-(3-Nitrophenoxy)-2,3,3a,4-tetrahydro-1H-pyrrolo[2,1-c][1,2,4]-benzothiadiazine 5,5-dioxide] | 201 to 204
O=S1(=O)NC2CCCN2c2ccc(Oc3cccc(Br)c3)cc21 (centres unmarked) [Example 38, 7-(3-Bromophenoxy)-2,3,3a,4-tetrahydro-1H-pyrrolo[2,1-c][1,2,4]-benzothiadiazine 5,5-dioxide] | 193 to 195
N#Cc1ccc(Oc2ccc3c(c2)S(=O)(=O)NC2CCCN32)cc1 (centres unmarked) [Example 5, 4-[(5,5-Dioxido-2,3,3a,4-tetrahydro-1H-pyrrolo[2,1-c][1,2,4]benzothiadiazin-7-yl)oxy]benzonitrile] | 242 to 245
CCc1cccc(Oc2ccc3c(c2)S(=O)(=O)NC2CCCN32)c1 (centres unmarked) [Example 35, 7-(3-Ethylphenoxy)-2,3,3a,4-tetrahydro-1H-pyrrolo [2,1-c][1,2,4]-benzothiadiazine 5,5-dioxide] | 143 to 144
CCN1CNS(=O)(=O)c2cc(Oc3cccc(C(C)=O)c3)ccc21 [Example 59, 1-{3-[(4-Ethyl-1,1-dioxido-3,4-dihydro-2H-1,2,4-benzothiadiazin-7-yl)oxy]phenyl}ethanone] | 164 to 166
O=S1(=O)NC2CCCN2c2ccc(Oc3cccc(Cl)c3)cc21 (centres unmarked) [Example 17, 7-(3-Chlorophenoxy)-2,3,3a,4-tetrahydro-1H-pyrrolo[2,1-c][1,2,4]-benzothiadiazine 5,5-dioxide] | 194 to 198
O=S1(=O)NC2CCCN2c2ccc(Oc3ccc4ccccc4c3)cc21 (centres unmarked) [Example 21, 7-(2-Naphthyloxy)-2,3,3a,4-tetrahydro-1H-pyrrolo[2,1-c][1,2,4]-benzothiadiazine 5,5-dioxide] | 234 to 236
COC(=O)c1cccc(Oc2ccc3c(c2)S(=O)(=O)NC2CCCN32)c1 (centres unmarked) [Example 26, Methyl 3-[(5,5-dioxido-2,3,3a,4-tetrahydro-1H-pyrrolo[2,1-c][1,2,4]-benzothiadiazin-7-yl)oxy]benzoate] | 223 to 227
N#Cc1cccc(Oc2ccc3c(c2)S(=O)(=O)NC2CCCN32)c1 (centres unmarked) [Example 6, 3-[(5,5-Dioxido-2,3,3a,4-tetrahydro-1H-pyrrolo [2,1-c][1,2,4]benzothiadiazin-7-yl)oxy]benzonitrile] | 227 to 230
CCN1CNS(=O)(=O)c2cc(Oc3cccc(OC)c3)ccc21 [Example 32, 4-Ethyl-7-(3-methoxyphenoxy)-3,4-dihydro-2H-1,2,4-benzothiadiazine 1,1-dioxide] | 91 to 93
CCN1CNS(=O)(=O)c2cc(Oc3cccc(C#N)c3)ccc21 [Example 31, 3-[(4-Ethyl-1,1-dioxido-3,4-dihydro-2H-1,2,4-benzothiadiazin-7-yl)oxy]benzonitrile] | 143 to 146
CC(C)c1cccc(Oc2ccc3c(c2)S(=O)(=O)NC2CCCN32)c1 (centres unmarked) [Example 36, 7-(3-Isopropylphenoxy)-2,3,3a,4-tetrahydro-1H-pyrrolo[2,1-c][1,2,4]-benzothiadiazine 5,5-dioxide] | 171 to 172
Cc1cccc(Oc2ccc3c(c2)S(=O)(=O)NC2CCCN32)c1 (centres unmarked) [Example 8, 7-(3-Methylphenoxy)-2,3,3a,4-tetrahydro-1H-pyrrolo[2,1-c][1,2,4]-benzothiadiazine 5,5-dioxide] | 190 to 195
O=S1(=O)NC2CCCN2c2ccc(Oc3cccc(OCc4ccccc4)c3)cc21 (centres unmarked) [Example 22, 7-(3-Benzyloxyphenoxy)-2,3,3a,4-tetrahydro-1H-pyrrolo-[2,1-c][1,2,4]benzothiadiazine 5,5-dioxide] | 179 to 182
CCCN1CNS(=O)(=O)c2cc(Oc3ccccc3)ccc21 [Example 30, 4-Propyl-7-phenoxy-3,4-dihydro-2H-1,2,4-benzothiadiazine 1,1-dioxide] | 143 to 145
O=S1(=O)NC2CCCN2c2ccc(Oc3cccc(OC(F)(F)F)c3)cc21 (centres unmarked) [Example 19, 7-(3-Trifluoromethoxyphenoxy)-2,3,3a,4-tetrahydro-1H-pyrrolo-[2,1-c][1,2,4]benzothiadiazine 5,5-dioxide] | 175
O=S1(=O)NC2CCCN2c2ccc(Oc3cccc4ccccc34)cc21 (centres unmarked) [Example 20, 7-(1-Naphthyloxy)-2,3,3a,4-tetrahydro-1H-pyrrolo[2,1-c][1,2,4]-benzothiadiazine 5,5-dioxide] | 227 to 229
COc1ccc(Oc2ccc3c(c2)S(=O)(=O)NC2CCCN32)cc1 (centres unmarked) [Example 9, 7-(4-Methoxyphenoxy)-2,3,3a,4-tetrahydro-1H-pyrrolo[2,1-c][1,2,4]-benzothiadiazine 5,5-dioxide] | 188 to 191
CCN1CNS(=O)(=O)c2cc(Oc3cccc(C)c3)ccc21 [Example 57, 4-Ethyl-7-(3-methylphenoxy)-3,4-dihydro-2H-[1,2,4]benzothiadiazine 1,1-dioxide] | 72 to 75
CCN1CNS(=O)(=O)c2cc(Oc3cccc(NS(C)(=O)=O)c3)ccc21 [Example 58, N-{3-[(4-Ethyl-1,1-dioxido-3,4-dihydro-2H-1,2,4-benzothiadiazin-7-yl)oxy]phenyl}methanesulphonamide] | 165 to 168
O=S1(=O)NC2CCCN2c2ccc(Oc3cc(C(F)(F)F)cc(C(F)(F)F)c3)cc21 (centres unmarked) [Example 16, 7-[3,5-Di(trifluoromethyl)phenoxy]-2,3,3a,4-tetrahydro-1H-pyrrolo[2,1-c][1,2,4]benzothiadiazine 5,5-dioxide] | 201 to 203
O=S1(=O)NC2CCCN2c2ccc(Oc3cccc(F)c3)cc21 (centres unmarked) [Example 37, 7-(3-Fluorophenoxy)-2,3,3a,4-tetrahydro-1H-pyrrolo [2,1-c][1,2,4]-benzothiadiazine 5,5-dioxide] | 201
COc1ccccc1Oc1ccc2c(c1)S(=O)(=O)NC1CCCN21 (centres unmarked) [Example 13, 7-(2-Methoxyphenoxy)-2,3,3a,4-tetrahydro-1H-pyrrolo[2,1-c][1,2,4]-benzothiadiazine 5,5-dioxide] | 175 to 176
CCN1CNS(=O)(=O)c2cc(Oc3ccc(C)c(C)c3)ccc21 [Example 61, 7-(3,4-Dimethylphenoxy)-4-ethyl-3,4-dihydro-2H-1,2,4-benzothiadiazine 1,1-dioxide] | 109 to 111

System: AMPA receptors
Assay: Excitatory fluxes induced by AMPA in Xenopus oocytes injected with rat cerebral cortex mRNA (2-electrode voltage-clamp)
Type: cell-based
Conditions: rat cortex poly-(A+) mRNA, AMPA 10 μM
Protocol: Study of the Excitatory Fluxes Induced by AMPA in Xenopus oocytes
mRNAs are prepared from cerebral cortex of male Wistar rat by the guanidinium thiocyanate/phenyl/chloroform method. The poly-(A^+) mRNAs are isolated by chromatography on oligo-dT cellulose and injected in an amount of 50 ng per oocyte. The oocytes are left to incubate for 2 to 3 days at 18° C. to allow expression of the receptors and are then stored at from 8 to 10° C.
Electrophysiological recording is carried out in a Plexiglass® chamber at from 20 to 24° C. in OR2 medium (J. Exp. Zool., 1973, 184, 321-334) by the 2-electrode “voltage-clamp” method, a 3rd electrode being placed in the bath to serve as reference.
All the compounds are administered via the incubation medium and the electric current is measured at the end of the period of administration. AMPA is used at a concentration of 10 μM. For each compound studied, the concentration that doubles (EC2X) or quintuples (EC5X) the intensity of the current induced by AMPA alone (5 to 50 nA) is determined.

Compound | EC2X (concentration that doubles the intensity of the current induced by AMPA alone) [µM] | EC5X (concentration that quintuples the intensity of the current induced by AMPA alone) [µM]
CCN1CNS(=O)(=O)c2cc(Oc3ccccc3)ccc21 [Example 29, 4-Ethyl-7-phenoxy-3,4-dihydro-2H-1,2,4-benzothiadiazine 1,1-dioxide] | 1.4 | 4.5
O=S1(=O)NC2CCCN2c2ccc(Oc3ccccc3)cc21 (single isomer, unassigned) [Example 3, 7-Phenoxy-2,3,3a,4-tetrahydro-1H-pyrrolo[2,1-c][1,2,4]-benzothiadiazine 5,5-dioxide, α Isomer] | 0.8 | 3.6
